Reference: patent publication US7700590B2, “Antibacterial agents” (University of New Orleans Research and Technology …, priority 2006, dated 2010)
Values after ≈ are worked out from the molar mass of the structure shown.

Key:
Assay type in all cases: cell-based
[1] = tested on: Staphylococcus aureus 29213; experiment: Antibacterial growth inhibition assay (serial dilution, colorimeter at 600 nm), S. aureus 29213; design: key to MIC, concentration at 50% inhibition of bacteria growth, S. aureus 29213: N stands for no inhibition; conditions: for MIC / MIC90: Staphylococcus aureus, 29213; for MIC / MIC, concentration at 50% inhibition of bacteria growth, S. aureus 29213: 50% growth inhibition, methicillin susceptible strain, serial dilution 238-0.46 μg/ml; for MIC: read-out: MIC, concentration at 50% inhibition of bacteria growth, S. aureus 29213; for MIC90: concentration of inhibition at 90%, Table 2, read-out: MIC90 S. aureus 29213
Experimental: (§1) The antibacterial activities of the compounds synthesized as described above were evaluated by assay against several strains of Gram positive bacteria from the American Type Culture Collection (ATCC), Staphylococcus aureus 29213, Staphylococcus aureus 43300, Enterococcus faecalis 29212, and Bacillus subtilis PY79. The minimum inhibition concentration (MIC, μg/mL) of each compound synthesized was tested against four bacterial strains. The inhibition of bacterial growth was monitored using a standard colorimeter at 600 nm using a serial dilution at concentrations 238, 119, 59.5, 29.8, 14.9, 7.44, 3.72, 1.86, 0.93, 0.46 μg/ml. Chloramphenicol was tested as a control, and inhibits bacteria growth (MIC90) at 7.44, 7.44, 4.0, 2.0 μg/mL, respectively, for the four bacterial strains listed in Table 1. In Table 1, the MICs are reported as the concentrations at 50% inhibition of bacteria growth, and N stands for no inhibition.

[2] = tested on: Staphylococcus aureus 43300; experiment: Antibacterial growth inhibition assay (serial dilution, colorimeter at 600 nm), S. aureus 43300; design: key to MIC, concentration at 50% inhibition of bacteria growth, S. aureus 43300: N stands for no inhibition; conditions: for MIC: Staphylococcus aureus, 43300, read-out: MIC, concentration at 50% inhibition of bacteria growth, S. aureus 43300; for MIC / MIC, concentration at 50% inhibition of bacteria growth, S. aureus 43300: 50% growth inhibition, methicillin resistant strain, serial dilution 238-0.46 μg/ml
Experimental: as §1

[3] = tested on: Enterococcus faecalis 29212; experiment: Antibacterial growth inhibition assay (serial dilution, colorimeter at 600 nm), E. faecalis 29212; design: key to MIC, concentration at 50% inhibition of bacteria growth, E. faecalis 29212: N stands for no inhibition; conditions: for MIC, concentration at 50% inhibition of bacteria growth, E. faecalis 29212 / MIC: 50% growth inhibition, vancomycin susceptible strain, serial dilution 238-0.46 μg/ml; for MIC: Enterococcus faecalis, 29212, read-out: MIC, concentration at 50% inhibition of bacteria growth, E. faecalis 29212
Experimental: as §1

Bacillus subtilis PY79 = experiment: Antibacterial growth inhibition assay (serial dilution, colorimeter at 600 nm), B. subtilis PY79; design: key to MIC, concentration at 50% inhibition of bacteria growth, B. subtilis PY79: N stands for no inhibition; conditions: for MIC / MIC90: Bacillus subtilis, PY79; for MIC / MIC, concentration at 50% inhibition of bacteria growth, B. subtilis PY79: 50% growth inhibition, serial dilution 238-0.46 μg/ml; for MIC: read-out: MIC, concentration at 50% inhibition of bacteria growth, B. subtilis PY79; for MIC90: concentration of inhibition at 90%, Table 2, read-out: MIC90 B. subtilis PY79
Experimental: as §1

[4] = tested on: Gram positive bacteria, including S. aureus, E. faecalis and B. subtilis; experiment: Antibacterial activity, statements not tied to one strain; conditions: for antibacterial activity in words: strain not singled out
Experimental: as §1

| MIC [1] [µg/mL] | MIC90 [1] [µg/mL] | MIC [2] [µg/mL] | MIC, concentration at 50% inhibition of bacteria growth, E. faecalis 29212 [3] | MIC (Bacillus subtilis PY79) [µg/mL] | MIC90 (Bacillus subtilis PY79) [µg/mL] | MIC90 ([4]; strain not named in the sentence (Table 2: S. aureus 29213, B. subtilis PY79)) [µg/mL] | MIC [3] [µg/mL] | MIC, concentration at 50% inhibition of bacteria growth, S. aureus 29213 [1] | MIC, concentration at 50% inhibition of bacteria growth, S. aureus 43300 [2] | MIC, concentration at 50% inhibition of bacteria growth, B. subtilis PY79 (Bacillus subtilis PY79) | SMILES | antibacterial activity in words ([1]; S. aureus 29213) | antibacterial activity in words ([2]; S. aureus 43300) | antibacterial activity in words ([3]; E. faecalis 29212) | antibacterial activity in words (Bacillus subtilis PY79; B. subtilis PY79) | antibacterial activity in words [4] | concentration of complete (greater than 90%) inhibition ([1]; S. aureus 29213) [µg/mL] | concentration of complete (greater than 90%) inhibition ([2]; S. aureus 43300, methicillin resistant) [µg/mL] | concentration inhibiting over 90% growth ([3]; E. faecalis 29212) [µg/mL] |
| --- | --- | --- | --- | --- | --- | --- | --- | --- | --- | --- | --- | --- | --- | --- | --- | --- | --- | --- | --- |
| 5.6 (≈ 13.7 µM) | 9.85 (≈ 24.2 µM) | 6.56 (≈ 16.1 µM) | N | 5 (≈ 12.3 µM) | 7.44 (≈ 18.3 µM) | < 10 | – | – | – | – | CCN1CC[C@@H](CN(Cc2ccccc2)Cc2ccc(Cl)c(Cl)c2)OC1=O [Compound A11, 6-{[benzyl-(3,4-dichloro-benzyl)-amino]-methyl}-3-ethyl-[1,3]oxazinan-2-one] | excellent activity | excellent activity | no activity | excellent activity | most potent | – | – | – |
| 10 (≈ 25.7 µM) | 14.9 (≈ 38.4 µM) | 35 (≈ 90.1 µM) | – | 7.6 (≈ 19.6 µM) | 30 (≈ 77.2 µM) | – | 7.4 (≈ 19 µM) | – | – | – | CCN1CC[C@@H](CN(Cc2ccccc2)Cc2cccc3ccccc23)OC1=O [Compound A13] | – | – | – | – | most potent | – | – | – |
| – | – | – | 238 µg/mL | – | – | – | – | N | N | N | CCN1CC[C@@H](CN(Cc2ccccc2)Cc2cccnc2)OC1=O [Compound A14] | – | – | – | – | decreased or nullified | – | – | – |
| – | – | – | N | – | – | – | – | N | N | N | CCN1CC[C@@H](CN(Cc2ccccc2)Cc2ccccn2)OC1=O [Compound A15] | – | – | – | – | decreased or nullified | – | – | – |
| 22 (≈ 62.4 µM) | 29.8 (≈ 84.5 µM) | 22.5 (≈ 63.8 µM) | – | 26 (≈ 73.8 µM) | 59.5 (≈ 169 µM) | – | 8.1 (≈ 23 µM) | – | – | – | CCN1CC[C@@H](CN(Cc2ccccc2)Cc2ccccc2C)OC1=O [Compound A17] | – | – | – | – | most potent | 30 | 30 | 14.9 |
| 11.5 (≈ 30.7 µM) | 14.9 (≈ 39.8 µM) | 13 (≈ 34.7 µM) | – | 12 (≈ 32 µM) | 30 (≈ 80.1 µM) | – | 14.9 (≈ 39.8 µM) | – | – | – | CN1CC[C@@H](CN(Cc2ccccc2)Cc2ccc3ccccc3c2)OC1=O [Compound B9] | – | – | – | – | most potent | – | – | – |
